Assays:
Assay type in all cases: cell-based, human
AQP3 (Aquaporin 3) = assay: Moisturizing efficacy: AQP3 mRNA expression by RT-PCR in HEKa; details: treated with 0.01%, positive control
Procedure: In order to confirm a moisturizing efficacy of the Iris germanica rhizome-derived exosomes, they were evaluated for their effect on AQP3 expression by comparing them with the Iris germanica rhizome extracts for each solvent. After inoculating a human epidermal keratinocyte (HEKa), they were cultured in a culture medium of Dulbecco Modified Eagle Medium (DMEM) supplemented with 100 IU/mL of penicillin and 100 μg/mL of streptomycin under 5% CO2 at 37° C. for 24 hours. After the culture, the medium was discarded, and the iris germanica rhizome-derived exosomes (stock concentration 9.90×10^9 particles/mL) and the iris germanica rhizome extracts for each solvent (stock concentration 100 mg/mL) were treated at each concentration and cultured for 48 hours. Thereafter, RNA was extracted from the cultured cells using a TransZol reagent, followed by performing RT-PCR (real-time genetic polymerase chain reaction) to measure an amount of mRNA change in AQP3 (Aquaporin 3), which is a moisturizing factor involved in moisture movement in the cells and is a protein that plays an important role in skin moisturization. A product generated by the PCR was identified with a Gel Documentation system by performing electrophoresis on a 1% agarose gel. In this case, a negative control group was treated with PBS, and a positive control group was treated with 0.01% of a hyaluronic acid. […]

MMP-1 = assay: Wrinkle improvement efficacy: MMP-1 mRNA expression in UVB-irradiated HDFa; details: UVB 20 mJ/cm^2, treated with 50 μM, positive control
Procedure: In order to confirm an anti-aging efficacy of the Iris germanica rhizome-derived exosomes, they were evaluated for their effect on MMP-1 expression by comparing them with the Iris germanica rhizome extracts for each solvent. After inoculating a human dermal fibroblast (HDFa), they were cultured in a culture medium of Fibroblast Basal Medium (Medium 106) containing 100 IU/mL of penicillin and 100 μg/mL of streptomycin under 5% CO2 at 37° C. for 24 hours. After the culture, the medium was discarded, and the Iris germanica rhizome-derived exosomes (stock concentration 9.90×10^9 particles/mL) and the Iris germanica rhizome extracts for each solvent (stock concentration 100 mg/mL) were treated at each concentration and cultured for 48 hours. In order to induce cell damage, the remaining cultured cell groups except for the non-UVB irradiation group were removed from the medium, and then the medium was irradiated with 20 mJ/cm^2 of UVB and replaced with a new medium, which was then cultured for 24 hours. After 24 hours, RNA was extracted from the cultured cells using a TransZol reagent, followed by performing RT-PCR (real-time genetic polymerase chain reaction) to measure an amount of mRNA change in MMP-1, which is related to skin aging and wrinkle formation. A product generated by the PCR was identified with a Gel Documentation system by performing electrophoresis on a 1% agarose gel. […]

COL1A1 = assay: Wrinkle improvement efficacy: COL1A1 mRNA expression in HDFa; details: treated with 50 μM, positive control
Procedure: In order to confirm an anti-aging efficacy of the Iris germanica rhizome-derived exosomes, they were evaluated for their effect on COL1A1 expression by comparing them with the Iris germanica rhizome extracts for each solvent. After inoculating a human dermal fibroblast (HDFa), they were cultured in a culture medium of Fibroblast Basal Medium (Medium 106) containing 100 IU/mL of penicillin and 100 μg/mL of streptomycin under 5% CO2 at 37° C. for 24 hours. After culturing, the medium was discarded, and the Iris germanica rhizome-derived exosomes (stock concentration 9.90×10^9 particles/mL) and the Iris germanica rhizome extracts for each solvent (stock concentration 100 mg/mL) were treated at each concentration and cultured for 48 hours. After culturing, RNA was extracted from the cultured cells using a TransZol reagent, followed by performing RT-PCR (real-time genetic polymerase chain reaction) to measure an amount of mRNA change in collagen, which maintains a skin connective tissue. A product generated by the PCR was identified with a Gel Documentation system by performing electrophoresis on a 1% agarose gel. In this case, a negative control group was treated with PBS, and a positive control group was treated with 50 μM of retinyl palmitate. […]

hyaluronic acid
AQP3 expression rate (AQP3 (Aquaporin 3)): 155.69%

CCCCCCCCCCCCCCCC(=O)OC/C=C(C)/C=C/C=C(C)/C=C/C1=C(C)CCCC1(C)C [retinyl palmitate]
MMP-1 expression rate (MMP-1): 72.81%
COL1A1 expression rate (COL1A1): 173.93%
